Data on two compounds can be found in ChEMBL document CHEMBL3045428, “Hypolipidemic, hepato-protective and renal damage recovering effects of catechin isolated from the methanolic extract of Cassia fistula stem bark on Streptozotocin-induced diabetic Wistar rats: a biochemical and morphological analysis” (Med Chem Res, 2012).

The source made the active and inactive calls. No cut-off for these calls is given here.

Data set [1] relates to Rattus norvegicus. Kind of data set: Antidiabetic activity against STZ-induced diabetic Rattus norvegicus Wistar albino (rat) assessed as change in hemoglobin at 20 mg/kg, po administered via intragastric tube for 45 days (reference value: 8.5 +/-0.9 mg/dl). The class given is functional.
Data set [2] deals with Rattus norvegicus. Nature of the data set: Nephroprotective activity in STZ-induced diabetic Rattus norvegicus Wistar albino (rat) assessed as change in serum urea level at 20 mg/kg, po administered via intragastric tube for 45 days (reference value: 41.5 +/-4.9 mg/dl). The class given is functional.
Data set [3] has as its system Rattus norvegicus. Nature of the data set: Hepatoprotective activity in STZ-induced diabetic Rattus norvegicus Wistar albino (rat) assessed as re-apperance of hepatic lobules at 20 mg/kg, po administered via intragastric tube for 45 days using hematoxylin/eosin staining method. The note with it: Liver. Details: dose 20 mg/kg. The class given is functional, organism-based.

The test system of data set [4] is Rattus norvegicus. Kind of data set: Antidiabetic activity against STZ-induced diabetic Rattus norvegicus Wistar albino (rat) assessed as serum HDL level at 20 mg/kg, po administered via intragastric tube for 45 days (reference value: 25.8 +/-1.6 mg/dl). The class given is functional.
The test system of data set [5] is Rattus norvegicus. Nature of the data set: Antidiabetic activity against STZ-induced diabetic Rattus norvegicus Wistar albino (rat) assessed as change in body weight at 20 mg/kg, po administered via intragastric tube for 45 days (reference value: 243.67 +/-8.9 g). The class given is functional.
The test system of data set [6] is Rattus norvegicus. Nature of the data set: Antidiabetic activity against STZ-induced diabetic Rattus norvegicus Wistar albino (rat) assessed as serum cholesterol level at 20 mg/kg, po administered via intragastric tube for 45 days (reference value: 295.5 +/-17.1 mg/dl). The format is functional.
Data set [7] deals with Rattus norvegicus. Kind of data set: Nephroprotective activity in STZ-induced diabetic Rattus norvegicus Wistar albino (rat) assessed as change in serum creatinine level at 20 mg/kg, po administered via intragastric tube for 45 days (reference value: 2.1 +/-0.9 mg/dl). The format is functional.
Data set [8] has as its system Rattus norvegicus. Kind of data set: Nephroprotective activity in STZ-induced diabetic Rattus norvegicus Wistar albino (rat) assessed as reduction in enlargement of glomerulus at 20 mg/kg, po administered via intragastric tube for 45 days using hematoxylin/eosin staining method. The class given is functional, organism-based. Details: dose 20 mg/kg.
The subject of data set [9] is Rattus norvegicus. Kind of data set: Antidiabetic activity against STZ-induced diabetic Rattus norvegicus Wistar albino (rat) assessed as serum VLDL level at 20 mg/kg, po administered via intragastric tube for 45 days (reference value: 55.2 +/-4.5 mg/dl). The class given is functional.
Data set [10] deals with Rattus norvegicus. Kind of data set: Nephroprotective activity in STZ-induced diabetic Rattus norvegicus Wistar albino (rat) assessed as reduction in glomerular expansion at 20 mg/kg, po administered via intragastric tube for 45 days using hematoxylin/eosin staining method. The format is functional, organism-based. The arrangement: dose 20 mg/kg.
For data set [11], the system named is Rattus norvegicus. Nature of the data set: Antidiabetic activity against STZ-induced diabetic Rattus norvegicus Wistar albino (rat) assessed as change in glycosylated hemoglobin of total hemoglobin at 20 mg/kg, po administered via intragastric tube for 45 days (reference value: 0.89 +/-0.03 %). The class given is functional.
Data set [12] has as its system Rattus norvegicus. Nature of the data set: Antidiabetic activity against STZ-induced diabetic Rattus norvegicus Wistar albino (rat) assessed as serum triglyceride level at 20 mg/kg, po administered via intragastric tube for 45 days (reference value: 65.5 +/-7.9 mg/dl). The class given is functional.
Data set [13] relates to Rattus norvegicus. Kind of data set: Hepatoprotective activity in STZ-induced diabetic Rattus norvegicus Wistar albino (rat) assessed as plasma ALP level at 20 mg/kg, po administered via intragastric tube for 45 days (reference value: 91.1 +/-9.2 ug/dl). The class given is functional.
Data set [14] relates to Rattus norvegicus. Kind of data set: Hepatoprotective activity in STZ-induced diabetic Rattus norvegicus Wistar albino (rat) assessed as plasma AST level at 20 mg/kg, po administered via intragastric tube for 45 days (reference value: 85.5 +/-9.21 ug/dl). The class given is functional.
Data set [15] concerns Rattus norvegicus. Kind of data set: Hepatoprotective activity in STZ-induced diabetic Rattus norvegicus Wistar albino (rat) assessed as plasma ACP level at 20 mg/kg, po administered via intragastric tube for 45 days (reference value: 28.7 +/-2.61 ug/dl). The class given is functional.
Data set [16] concerns Rattus norvegicus. Nature of the data set: Hepatoprotective activity in STZ-induced diabetic Rattus norvegicus Wistar albino (rat) assessed as plasma ALT level at 20 mg/kg, po administered via intragastric tube for 45 days (reference value: 97.11 +/-10.3 ug/dl). The format is functional.
Data set [17] concerns Rattus norvegicus. Nature of the data set: Nephroprotective activity in STZ-induced diabetic Rattus norvegicus Wistar albino (rat) assessed as change in serum total protein level at 20 mg/kg, po administered via intragastric tube for 45 days (reference value: 3.7 +/-0.9 g/dl). The class given is functional.
The test system of data set [18] is Rattus norvegicus. Kind of data set: Nephroprotective activity in STZ-induced diabetic Rattus norvegicus Wistar albino (rat) assessed as change in serum uric acid level at 20 mg/kg, po administered via intragastric tube for 45 days (reference value: 1.5 +/-0.9 mg/dl). The class given is functional.
Data set [19] has as its system Rattus norvegicus. Kind of data set: Antidiabetic activity against STZ-induced diabetic Rattus norvegicus Wistar albino (rat) assessed as serum LDL level at 20 mg/kg, po administered via intragastric tube for 45 days (reference value: 165.7 +/-14.35 mg/dl). The class given is functional.
Data set [20] concerns Rattus norvegicus. Kind of data set: Nephrotoxicity in Rattus norvegicus Wistar albino (rat) assessed as change in urea level in serum at 20 mg/kg, po administered via intragastric tube for 45 days (reference value: 24.12 +/- 2.3 mg/dl ). The format is toxicity, organism-based. The arrangement: dose 20 mg/kg, route oral. The following applies: in vivo, 1080 h.
Data set [21] deals with Rattus norvegicus. Kind of data set: Hepatotoxicity in Rattus norvegicus Wistar albino (rat) assessed as change in plasma ALT level at 20 mg/kg, po administered via intragastric tube for 45 days (reference value: 56.72 +/-5.2 ug/dl). The class given is toxicity, organism-based. Details: dose 20 mg/kg, route oral. The following applies: in vivo, 1080 h.
The subject of data set [22] is Rattus norvegicus. Nature of the data set: Toxicity in Rattus norvegicus Wistar albino (rat) assessed as serum cholesterol level at 20 mg/kg, po administered via intragastric tube for 45 days (reference value: 97.72 +/-7.3 mg/dl). The format is organism-based. Details: dose 20 mg/kg, route oral. The following applies: in vivo, 1080 h.
Data set [23] concerns Rattus norvegicus. Nature of the data set: Toxicity in Rattus norvegicus Wistar albino (rat) assessed as change in hemoglobin level at 20 mg/kg, po administered via intragastric tube for 45 days (reference value: 15.12 +/-1.3 mg/dl ). The following applies: in vivo, 1080 h. The arrangement: dose 20 mg/kg, route oral. The class given is organism-based.
The test system of data set [24] is Rattus norvegicus. Kind of data set: Toxicity in Rattus norvegicus Wistar albino (rat) assessed as serum triglyceride level at 20 mg/kg, po administered via intragastric tube for 45 days (Rvb =17.72 +/-1.3 mg/dl). The class given is organism-based. Details: dose 20 mg/kg, route oral. The following applies: in vivo, 1080 h.
Data set [25] has as its system Rattus norvegicus. Kind of data set: Hepatotoxicity in Rattus norvegicus Wistar albino (rat) assessed as change in plasma ACP level at 20 mg/kg, po administered via intragastric tube for 45 days (reference value: 9.97+/-1.1 ug/dl). The format is toxicity, organism-based. Details: dose 20 mg/kg, route oral. The following applies: in vivo, 1080 h.
Data set [26] relates to Rattus norvegicus. Kind of data set: Toxicity in Rattus norvegicus Wistar albino (rat) assessed as serum HDL level at 20 mg/kg, po administered via intragastric tube for 45 days (Rvb =65.21 +/-6.9 mg/dl). The class given is organism-based. Details: dose 20 mg/kg, route oral. The following applies: in vivo, 1080 h.
Data set [27] has as its system Rattus norvegicus. Kind of data set: Nephrotoxicity in Rattus norvegicus Wistar albino (rat) assessed as change in serum total protein level at 20 mg/kg, po administered via intragastric tube for 45 days (reference value: 8.12 +/- 1.0 g/dl ). The format is toxicity, organism-based. The note with it: in vivo, 1080 h. Details: dose 20 mg/kg, route oral.
Data set [28] has as its system Rattus norvegicus. Kind of data set: Hepatotoxicity in Rattus norvegicus Wistar albino (rat) assessed as change in plasma ALP level at 20 mg/kg, po administered via intragastric tube for 45 days (reference value: 49.99+/-4.7 ug/dl). The class given is toxicity, organism-based. The arrangement: dose 20 mg/kg, route oral. The following applies: in vivo, 1080 h.
For data set [29], the system named is Rattus norvegicus. Nature of the data set: Nephrotoxicity in Rattus norvegicus Wistar albino (rat) assessed as change in uric acid level in serum at 20 mg/kg, po administered via intragastric tube for 45 days (reference value: 0.96 +/- 0.93 mg/dl ). Details: dose 20 mg/kg, route oral. The format is toxicity, organism-based. The following applies: in vivo, 1080 h.

Data set [30] deals with Rattus norvegicus. Kind of data set: Toxicity in Rattus norvegicus Wistar albino (rat) assessed as change in glycosylated hemoglobin of total hemoglobin at 20 mg/kg, po administered via intragastric tube for 45 days (reference value: 0.52 +/-0.03 % ). The arrangement: dose 20 mg/kg, route oral. The class given is organism-based. The note with it: in vivo, 1080 h.
Data set [31] deals with Rattus norvegicus. Nature of the data set: Hepatotoxicity in Rattus norvegicus Wistar albino (rat) assessed as change in plasma AST level at 20 mg/kg, po administered via intragastric tube for 45 days (reference value: 39.6 +/-3.3 ug/dl). The following applies: in vivo, 1080 h. Details: dose 20 mg/kg, route oral. The format is toxicity, organism-based.
Data set [32] deals with Rattus norvegicus. Nature of the data set: Toxicity in Rattus norvegicus Wistar albino (rat) assessed as change in body weight at 20 mg/kg, po administered via intragastric tube for 45 days (reference value: 238.2 +/-7.3 g). The class given is organism-based. The arrangement: dose 20 mg/kg, route oral. The note with it: in vivo, 1080 h.
Data set [33] has as its system Rattus norvegicus. Nature of the data set: Nephrotoxicity in Rattus norvegicus Wistar albino (rat) assessed as change in creatinine level in serum at 20 mg/kg, po administered via intragastric tube for 45 days (reference value: 1.62 +/- 0.2 mg/dl ). The class given is toxicity, organism-based. The arrangement: dose 20 mg/kg, route oral. The note with it: in vivo, 1080 h.

For `Oc1cc(O)c2c(c1)OC(c1ccc(O)c(O)c1)C(O)C2` (stereo not drawn) [CATECHIN], the Activity in the data set on Rattus norvegicus [1] was 14.98 mg/dL; in the data set with Rattus norvegicus [2], 29.98 mg/dL; with Rattus norvegicus [4], 60.56 mg/dL; in the data set with Rattus norvegicus [5] it was 209.12 g; in the data set with Rattus norvegicus [6], 109.21 mg/dL; in the data set with Rattus norvegicus [7] it was 1.78 mg/dL. The Activity came out at 13.21 mg/dL with Rattus norvegicus [9]; 0.57% with Rattus norvegicus [11]; 20.81 mg/dL in the data set with Rattus norvegicus [12]; 54.29 µg/dL in the data set on Rattus norvegicus [13]; 41.95 µg/dL with Rattus norvegicus [14]; 11.98 µg/dL in the data set with Rattus norvegicus [15]. Moreover, the Activity with Rattus norvegicus [16] came to 59.71 µg/dL; in the data set with Rattus norvegicus [17] it was 6.58 g/dL; with Rattus norvegicus [18], 0.99 mg/dL; with Rattus norvegicus [19] it was 91.28 mg/dL. For the same compound, the outcome with Rattus norvegicus [3], with Rattus norvegicus [8] and in the data set on Rattus norvegicus [10] was Active.
`Oc1cc(O)c2c(c1)O[C@H](c1ccc(O)c(O)c1)[C@@H](O)C2` [CATECHIN]: the Activity was 23.98 mg/dL in the data set with Rattus norvegicus [20]; 55.18 µg/dL with Rattus norvegicus [21]; 98.34 mg/dL with Rattus norvegicus [22]; 14.98 mg/dL in the data set with Rattus norvegicus [23]; 18.18 mg/dL with Rattus norvegicus [24]; 9.52 µg/dL in the data set with Rattus norvegicus [25]. The Activity came to 68.65 mg/dL in the data set with Rattus norvegicus [26]; 8.98 g/dL in the data set with Rattus norvegicus [27]; 50.87 µg/dL with Rattus norvegicus [28]; 0.98 mg/dL in the data set on Rattus norvegicus [29]; 0.46% with Rattus norvegicus [30]; 36.12 µg/dL in the data set on Rattus norvegicus [31]. The Activity in the data set with Rattus norvegicus [32] came out at 239.67 g; with Rattus norvegicus [33] it was 1.98 mg/dL.
